Measurements as given in patent US10517889B2, “Modulators of SMAD7 expression” (Ionis Pharmaceuticals, Inc., priority 2017, dated 2019).
Values joined by “and” are separate entries in the source; they are usually repeats but may differ in a detail not shown here. Equal entries are not always repeated. Strand notation (5' to 3'): a small letter for the sugar, then the base; units joined by * are phosphorothioate-linked, units joined directly phosphodiester-linked; [ ] holds rarer units or linkages, { } end groups; capitals alone tell only the bases. k = constrained ethyl (cEt); [5mC] = 5-methylcytosine; d = 2'-deoxy (DNA)

Assays:
[1] = tested on: mouse Smad7 mRNA; test: Murine Smad7 mRNA expression after subcutaneous administration in BALB/c mice (Example 10); assay type: in vivo; settings: 50 mg/kg subcutaneous once a week for 4 weeks, 24 hours after last dose
Procedure: The objective of this study was to evaluate the efficacy of Ionis SMAD7 antisense oligonucleotides compared to ION 736697/Mongersen in BALB/c mice following 4 weeks of treatment. Both ION 830025 and ION 798781 are cross-reactive with mouse Smad7 mRNA.
Groups of BALB/c mice were subcutaneously administered 50 mg/kg of Ionis SMAD7 oligonucleotides once a week for 4 weeks. Each group contained 4 mice. One group of mice was administered PBS once a week for 4 weeks. […]

[2] = Tissue and organ histopathology after oral gavage in CD-1 mice (Example 7); assay type: in vivo; settings: daily oral gavage 500 mg/kg for one month, in words
Procedure: Groups of 7-8 week old male CD-1 mice were given an oral gavage dose once daily for 4 weeks of 500 mg/kg of Ionis SMAD7 oligonucleotides. Each group contained 8 mice. One group of male CD-1 mice was administered saline by oral gavage daily.
Histopathology evaluations were performed on the mice treated with Ionis oligonucleotides to evaluate any tissue damage in the liver (with gallbladder), kidneys, heart, spleen, thymus, mesenteric lymph nodes, and different parts of the GI tract, including duodenum, ileum, and colon (proximal and distal). Tissues were collected and fixed in 10% neutral-buffered formalin, embedded in paraffin, sectioned, and stained with hematoxylin and eosin. All the tissues were histologically unremarkable in all mice.

[3] = Organ weights after subcutaneous administration in CD-1 mice (Example 6); assay type: in vivo; settings: end of study, 50 mg/kg subcutaneously twice a week for 7 weeks
Procedure: (§1) Groups of 8-9 week old male CD-1 mice were injected subcutaneously twice a week for 7 weeks with 50 mg/kg of Ionis oligonucleotides (100 mg/kg/week dose). Each group contained 4 mice. One group of male CD-1 mice was injected subcutaneously twice a week for 7 weeks with PBS. Plasma was collected for analysis on day 28.
Ionis SMAD7 oligonucleotides that caused any changes in organ weights outside the expected range for antisense oligonucleotides were excluded from further studies.

[4] = tested on: human SMAD7 mRNA; test: Antisense inhibition of human SMAD7 mRNA expression in Hep3B cells by 3-10-3 cEt gapmers, 10,000 nM, electroporation (Example 2); assay type: cell-based; settings: approximately 24 hours
Method in brief: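 Hep3B cells (20,000 per well) were electroporated with 10,000 nM 16-mer 3-10-3 cEt gapmer (phosphorothioate, 5-methylcytosine). After about 24 h, SMAD7 mRNA was quantified by qRT-PCR with primer probe set RTS5062, normalised to RIBOGREEN total RNA, and expressed as percent inhibition versus untreated cells.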

[5] = Hematology assays after subcutaneous administration in CD-1 mice (Example 6); assay type: in vivo; parameters: RBC / Eosinophils / Monocytes: unit not given here; settings: 50 mg/kg subcutaneous twice weekly for 7 weeks
Procedure: as §1
Blood obtained from all mouse groups was measured by an ADVIA2120i hematology analyzer (Siemens, USA) for measurements of the various blood cells, as well as other hematology markers.

[6] = tested on: human SMAD7 mRNA; test: Dose-dependent inhibition of human SMAD7 mRNA expression in Hep3B cells (Example 3, Study 1 and 2); assay type: cell-based; settings: electroporation; for % inhibition of SMAD7 mRNA expression: approximately 16 hours
Method in brief: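 Hep3B cells, 20,000 per well, electroporated with antisense oligonucleotide at 0.31, 1.25, 5.00 or 20.00 μM (first series) or 0.74, 2.22, 6.67 or 20.00 μM (second series). After ~16 h, SMAD7 mRNA measured by RT-qPCR (RTS5062), normalised to RIBOGREEN total RNA. Percent inhibition vs untreated cells; IC50 derived.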

[7] = Plasma chemistry markers after subcutaneous administration in CD-1 mice (Example 6); assay type: in vivo; settings: CD-1 mice plasma at day 46; 50 mg/kg subcutaneously twice a week for 7 weeks
Procedure: CD-1® mice (Charles River, Mass.) are a multipurpose mice model, frequently utilized for safety and efficacy testing. The mice were treated with Ionis human SMAD7 antisense oligonucleotides selected from studies described above and evaluated.
Groups of 8-9 week old male CD-1 mice were injected subcutaneously twice a week for 7 weeks with 50 mg/kg of Ionis oligonucleotides (100 mg/kg/week dose). Each group contained 4 mice. One group of male CD-1 mice was injected subcutaneously twice a week for 7 weeks with PBS. […]

[8] = tested on: mouse Smad7 mRNA; test: Pharmacology: mouse Smad7 mRNA expression in liver, kidney, duodenum, ileum and colon after subcutaneous administration in CD-1 mice (Example 6); assay type: in vivo; settings: 50 mg/kg subcutaneous twice weekly for 7 weeks, normalized to GAPDH
Procedure: as §1
The pharmacological activity of the Ionis oligonucleotides in mice was assessed by measuring mouse Smad7 mRNA expression in liver, kidney, duodenum, ileum, and colon at necropsy.
Tissue samples from all mice were analyzed for Smad7 mRNA expression using the primer probe set HTS7555 (forward sequence […], designated SEQ ID NO: 2737; reverse sequence […], designated SEQ ID NO: 2738; probe sequence […], designated SEQ ID NO: 2739), which was normalized to mRNA levels of the housekeeping gene, GAPDH. One-way ANOVA with Dunnet's comparison test was used for statistical analysis.

Row | Substance | Mouse Smad7 mRNA expression (% inhibition), Colon [1] [% inhibition] | Mouse Smad7 mRNA expression (% inhibition), Duodenum [1] [% inhibition] | Mouse Smad7 mRNA expression (% inhibition), Ileum [1] [% inhibition] | Mouse Smad7 mRNA expression (% inhibition), Kidney [1] [% inhibition] | Mouse Smad7 mRNA expression (% inhibition), Liver [1] [% inhibition] | Organ weights, Kidneys [3] [g] | Organ weights, Liver [3] [g] | Organ weights, Spleen [3] [g] | Eosinophils [5] | Hematocrit [5] [%] | Hemoglobin [5] [g/dL] | Lymphocytes [5] [%] | MCH [5] [pg] | MCHC [5] [g/dL] | MCV [5] [fL] | Monocytes [5] | Neutrophils [5] [%] | RBC [5] | Reticulocytes [5] [%] | WBC [5] | also measured
1 | ION 736697: uniform deoxy phosphorothioate oligonucleotide GTCGCCCCTTCTCCCCGCAGC (SEQ ID NO: 2736), same sequence and chemistry as GED-0301 (Mongersen) (DNA, all phosphorothioate, methylation of C not given here) [reference compound] | 3 | 0 | 0 | 9 | 6 |  |  |  |  |  |  |  |  |  |  |  |  |  |  |  | 
2 | ION 790615: 3-10-3 (S)-cEt gapmer targeting human SMAD7; top lead compound (k[5mC]*k[5mC]*kA*dA*dT*dG*dA*dG*dA*dA*dT*dG*d[5mC]*kT*kT*k[5mC]) | 71 | 39 | 41 | 28 | 47 |  |  |  |  |  |  |  |  |  |  |  |  |  |  |  | Histopathology: oligonucleotide-related tissue alterations [2]: not associated with any antisense oligonucleotide-related tissue alterations
3 | 799144 (antisense kT*kT*kG*dG*dG*dT*dT*dA*dT*dG*dA*d[5mC]*dG*kG*kA*k[5mC]) [compound 799144] |  |  |  |  |  | 0.6 | 2.3 | 0.1 | 2.9 | 43.1 | 14.3 | 80.7 | 15.2 | 33.2 | 45.8 | 4.9 | 11.4 | 9.5 | 3.3 | 6.2 10^3/μL | % inhibition of SMAD7 mRNA expression ([4]; Hep3B cells, electroporation with 10,000 nM antisense oligonucleotide, primer probe set RTS5062, relative to untreated control cells): 72%; % Inhibition ([4]; SMAD7 mRNA, Hep3B cells, 10,000 nM antisense oligonucleotide, electroporation, primer probe set RTS5062, relative to untreated control cells): 72%; platelets [5]: 614.0 10^3/μL; Basophils ([5]; n.d. = below detection levels): 0.1 10^3/μL; % inhibition of SMAD7 mRNA expression ([6]; 740 nM, Study 2, relative to untreated control cells): 32% and 40%; % inhibition of SMAD7 mRNA expression ([6]; 2220 nM, Study 2): 50% and 57%; % inhibition of SMAD7 mRNA expression ([6]; 6670.0 nM, Study 2): 67% and 60%; % inhibition of SMAD7 mRNA expression ([6]; 20000.0 nM, Study 2): 83% and 87%; IC50 ([6]; Study 2 (740-20000 nM)): 2 µM and 1 µM; ALT [7]: 253 IU/L; AST [7]: 170 IU/L; Albumin [7]: 2.7 g/dL; BUN [7]: 21 mg/dL; % inhibition of Smad7 mRNA expression (compared to control), Kidney ([8]; kidney): 3%; % inhibition of Smad7 mRNA expression (compared to control), Liver ([8]; liver): 0%
4 | 830027 (antisense kA*kA*k[5mC]*d[5mC]*dA*dT*dT*dT*dA*dT*d[5mC]*dT*dG*kG*kT*kG) [compound 830027] |  |  |  |  |  | 0.6 | 2.6 | 0.2 | 1.9 | 44.7 | 14.7 | 64.4 | 15.1 | 32.9 | 46.3 | 8.2 | 25.6 | 9.7 | 3.4 | 8.6 10^3/μL | % Inhibition ([4]; Hep3B cells, electroporation with 10,000 nM antisense oligonucleotide, SMAD7 mRNA by RT-PCR (RTS5062), relative to untreated control cells): 23%; platelets [5]: 1141.8 10^3/μL; ALT [7]: 40 IU/L; AST [7]: 104 IU/L; Albumin [7]: 2.5 g/dL; BUN [7]: 23 mg/dL
